Circulation half-life and IC50 data for 1 compound are collected here from US20220280653A1, “INTERCELLULAR ADHESION MOLECULE 1 (ICAM1) ANTIBODY DRUG CONJUGATE AND USES THEREOF” (Children's Medical Center Corporation, priority 2019, published 2022).

Structures can show the parent of a compound that is named as a salt.

The conditions of data set [1]: in vivo; cited from earlier work.
Data set [2] concerns PANC-1 cells. The data set is described as follows: Cytotoxicity assay (CCK-8). The conditions noted are these: Homo sapiens; PANC-1, 72 hours. Format: cell-based.
Experimental: Human pancreatic cancer cell lines were seeded in a 96-well plate at a density of 5x10^3 cells/well and allowed to adhere overnight. The culture medium was then replaced with medium containing free GEM, IgG or ICAM1 conjugated DM1, Duo, MMAE, MMAF at different drug concentrations. After cells were cultured for another 72 hours, the cytotoxicity was determined by CCK-8 assay following the vendor-provided protocol. Cells were carefully rinsed with PBS after the drug-containing medium was removed, and this was followed by adding the CCK-8 containing medium solution. The cells were then incubated with the CCK-8 medium for 4 hours. The plate was read at the absorbance wavelength of 450 nm using a microplate reader (Synergy2; BioTek, Winooski, Vt., USA). Cell viability was determined by comparing the absorbance of cells incubated with drugs to that of the control cells incubated without the presence of the drug.

On to `Nc1ccn([C@@H]2O[C@H](CO)[C@@H](O)C2(F)F)c(=O)n1` [GEM, Gemcitabine hydrochloride], for which, in data set [1], the circulation half-life was 16.8 min. Also, half-maximal inhibition in data set [2] (IC50) required 89.1 µM.
